# Laboratory results: PMC6811539, “Minute-scale persistence of a GPCR conformation state triggered by non-cognate G protein interactions primes signaling” (Nature Communications, 2019)
# Where “and” joins values, the source holds several entries; their conditions need not be identical. Identical values can stand only once. Like-named read-outs stand apart in the source and are kept apart here. Where a SMILES comes first, the peptide text is derived from it. The star is where a group is joined. Biotin = O=C1N[C@H]2[C@H](CS[C@H]2CCCCC(=O)*)N1
# How the values were obtained:
# PKC = assay: cAMP accumulation with PKC inhibitors in Gαq-overexpressing and untransfected HEK293T cells; assay type: cell-based, human; conditions: pretreatment with inhibitor 10 μM; fenoterol 10 μM, forskolin 2 μM
# Excerpt: (§1) For concentration–response curves with Gαq overexpression as well as the knockdown experiments, transfected and control cells (untransfected or mock short hairpin RNA transfected) were resuspended to equivalent concentration (4 × 10^6 cells/ml) based on Countess II numbers.
# β2-AR SPASM sensors = β2-AR SPASM sensors (Homo sapiens, UniProt P07550); assay: cAMP accumulation in HEK293T cells expressing β2-AR SPASM sensors (cAMP Glo); assay type: cell-based; conditions: saturating agonist, normalized to β2-AR-(-), mean; for Emax: HEK-293T, read-out: Maximum cAMP (Emax)
# β2-AR SPASM sensors, sequence (P07550 whole entry, one chain of several): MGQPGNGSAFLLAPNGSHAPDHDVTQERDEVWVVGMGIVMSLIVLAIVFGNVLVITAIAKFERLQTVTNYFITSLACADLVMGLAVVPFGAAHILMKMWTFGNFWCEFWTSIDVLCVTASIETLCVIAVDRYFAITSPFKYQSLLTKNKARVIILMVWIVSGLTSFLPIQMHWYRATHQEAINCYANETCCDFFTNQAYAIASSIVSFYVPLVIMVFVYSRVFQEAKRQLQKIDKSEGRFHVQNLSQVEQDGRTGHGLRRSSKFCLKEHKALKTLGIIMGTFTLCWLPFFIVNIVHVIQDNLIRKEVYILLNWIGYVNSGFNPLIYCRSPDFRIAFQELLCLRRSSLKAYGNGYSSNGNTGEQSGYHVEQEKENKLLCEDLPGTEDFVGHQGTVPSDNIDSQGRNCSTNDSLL
# β2-AR SPASM sensors, sequence (P50148 333-359, one chain of several, further chain): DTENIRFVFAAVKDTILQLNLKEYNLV
# endogenous β2-AR = endogenous β2-AR (Homo sapiens, UniProt P07550); assay: cell-based; conditions: HEK-293T, with forskolin 2 μM, 10 min, mean ± SD
# endogenous β2-AR, sequence (P07550 whole entry): as the sequence (P07550 whole entry, one chain of several) above
# Excerpt: as §1
# β2-AR-mCer = target: T1, β2-AR-mCer (Homo sapiens, UniProt P07550); assay: affinity pull-down and release (binding-and-release) assay for Gα peptide–β2-AR interaction; conditions: biotinylated peptide 30 μM, β2-mCer 10 nM
# T1 construct: expressed in transfected cells; host or cells: native membranes of transiently transfected HEK293T cells
# T1 sequence (P07550 whole entry): as the sequence (P07550 whole entry, one chain of several) above
# Protocol: Native membranes were prepared from cells expressing β2-mCer and stored in sucrose-supplemented buffer A as described above (Membrane preparations). Membranes were sonicated (3× bursts, 15 s with 1 min pauses) and resuspended in ΔFRET buffer minus Ca^2+ to a concentration of 10 nM receptor based on fluorescence counts. bioQp/bioSp (30 μM) and 100 μM isoproterenol were added and mixed for 5 min. Samples were split into duplicates, one of which was not manipulated in any way to obtain total receptor counts. To the other tube, 20 μl of 0.4 mg/ml streptavidin-coated magnetic beads were added, mixed, and precipitated using a Neodymium disc magnet N52 (20 × 40 mm). Supernatant was removed to a fresh micro-centrifuge tube to monitor fluorescence of receptors not bound to the beads. A solution of 100 μM Qp/Sp was added to the precipitated beads, mixed, and magnetically separated again. The supernatant was collected to determine the released fraction of receptors. Fluorescence of mCer was monitored on a FluoroMax 4 fluorometer (Horiba) using 430 nm excitation (8 nm bandpass) and emission scan from 450 to 500 nm, with the maximum at 475 nm being used for the calculation. Based on total and unbound counts, the amount of receptor bound was calculated (bound = total − unbound) and compared with the counts from the released receptor (% = released/bound). […]
# [1] = extent of photocleavage of PC-Qp by MALDI-MS; assay type: physicochemical
# Protocol: Native membranes were prepared from cells expressing β2-mCer and were stored in sucrose-supplemented buffer A as described above (Membrane preparations). […]. Both samples were centrifuged 100,000 × g, 5 min, 4 °C to sediment the membrane. Supernatants were stored on ice for analysis by MS. Control samples containing 50 μM peptide in the buffer were also prepared.
# Prior to matrix-assisted laser desorption and ionization time-of-flight MS (MALDI-TOF MS) analysis, the samples were desalted using C18 ZipTips (Millipore Corporation, Billerica, MA). The manufacturer’s standard protocol for peptide clean-up was followed. After elution from the ZipTip, 1 μL of each sample was spotted on a MALDI-TOF 384 spot stainless-steel target (Bruker Daltonics, Billerica, MA) and mixed with 1 μl of α-cyano-4-hydroxy-cinnamic acid (α-CHCA) matrix (15 mg/ml α-CHCA in 50% acetonitrile). Each spot was allowed to dry at room temperature. The target was placed in a Bruker Autoflex Speed MALDI-TOF mass spectrometer (Bruker Daltonics, Billerica, MA) equipped with a Nd-YAG 355 nm pulsed laser. The data were collected in reflectron mode, positive polarity, with an accelerating potential of 19 kV. Each spectrum was the accumulation of 4000 laser shots with complete spot raster of the laser during data collection. External calibration was performed using 0.5 μl α-CHCA and 0.5 μl of peptide standard (part# 206195, Bruker Daltonics, Billerica, MA) with Angiotensin II (monoisotopic mass [MH^+ ] 1046.5418), Angiotensin I (monoisotopic mass [MH^+ ] 1296.6848), SubstanceP (monoisotopic mass [MH^+] 1347.7354), Bombesin (monoisotopic mass [MH^+] 1619.8223), ACTH clip 1–17 (monoisotopic mass [MH^+] 2093.0862), ACTH clip 18–39 (monoisotopic mass [MH^+] 2465.1983), and Somatostatin 28 (monoisotopic mass [MH^+] 3147.4710). The Bruker data files were converted to mzXML files using MSConvertGUI tool in ProteoWizard open-source software. The mzXML files were viewed and analyzed with mMass v5.5 open-source software.
# V1A-R with purified Gαq = assay: activation of purified Gq (BODIPY-FL-GTPγS) in V1A-R membranes; assay type: biochemical, human (V1AR); Mus musculus (Gαq); conditions: hotspot swapped peptide vs. parent; vasopressin 100 nM
# V1A-R SPASM sensors = assay: IP1 levels in HEK293T cells expressing V1A-R SPASM sensors; assay type: cell-based, human; conditions: hotspot swapped peptide vs. parent; vasopressin 100 nM
# Protocol: HEK293T cells expressing the indicated sensor were collected 28–32 h post transfection, to assess IP1 levels using the IP-One HTRF assay kit (Cisbio). Cells were gently resuspended in their original media, counted using a hemocytometer, and centrifuged (300 × g, 3 min). An appropriate volume of StimB buffer (CisBio: 10 mM Hepes, 1 mM CaCl2, 0.5 mM MgCl2, 4.2 mM KCl, 146 mM NaCl, 5.5 mM glucose, 50 mM LiCl, pH 7.4) was added to reach a density of 3 × 10^6 cells/mL. Cells were incubated at 37 °C for 15 min. Cells were subsequently incubated with or without 100 nM of Arg-vasopressin peptide for 5 min at 37 °C. The manufacturer’s protocol was modified to achieve a high signal-to-noise ratio. […] IP1 FRET spectra were collected in top read format using a FlexStation3 plate reader with a delay of 50 μs and an integration time of 300 μs. […] FRET was calculated from ratio of the emission at […] to the emission at 620 nm. […]
# Supplementary Figure 1 - Hot-spot substitutions in Gα peptides affect G protein activation and downstream signaling from V1A-R. (a) Activation of G protein (Gαq) is monitored by the increase in BODIPY fluorescence upon agonist stimulation of membranes harvested from HEK293T cells expressing V1A- R, and reconstituted with purified Gαq. […] Statistically significant differences were assessed by a one- way ANOVA, followed by Tukey’s post-ANOVA test. […]
molecule,measurement,setting,value
CN(C)CCCn1cc(C2=C(c3c[nH]c4ccccc34)C(=O)NC2=O)c2ccccc21 [BimI],effect of PKC inhibitor on enhanced cAMP response of Gαq-overexpressing cells,PKC,did not block the enhanced cAMP response
"CNC[C@H](O)c1ccc(O)c(O)c1 [Epinephrine, epinephrine]",Maximum cAMP (Emax),β2-AR SPASM sensors; b2-AR-(-) sensor,100%
same,Maximum cAMP (Emax),β2-AR SPASM sensors; b2-AR-(Qp) sensor,182.89%
same,Maximum cAMP (Emax),β2-AR SPASM sensors; b2-AR-(Sp) sensor,197.09%
"CC(Cc1ccc(O)cc1)NCC(O)c1cc(O)cc(O)c1 (centres unmarked) [Fenoterol, fenoterol]",Emax,β2-AR SPASM sensors; b2-AR-(-) sensor,97.5%
same,Emax,β2-AR SPASM sensors; b2-AR-(Qp) sensor,171%
same,Emax,β2-AR SPASM sensors; b2-AR-(Sp) sensor,131%
same,Emax,endogenous β2-AR; Gαq overexpressing,138 ± 3.15%
same,Emax,endogenous β2-AR; untransfected (Un.),94.5 ± 3.05%
COc1ccc2c(c1)c(C1=C(c3c[nH]c4ccccc34)C(=O)NC1=O)cn2CCCN(C)C [Gö6983],effect of PKC inhibitor on enhanced cAMP response of Gαq-overexpressing cells,PKC,did not block the enhanced cAMP response
CC[C@H](C)[C@H](NC(=O)[C@H](CC(N)=O)NC(=O)[C@H](CCC(=O)O)NC(=O)[C@@H](NC(=O)[C@H](CC(=O)O)NC(=O)CCCC[C@@H]1SC[C@@H]2NC(=O)N[C@@H]21)[C@@H](C)O)C(=O)N[C@@H](CCCNC(=N)N)C(=O)N[C@@H](CCCNC(=N)N)C(=O)N[C@H](C(=O)N[C@@H](Cc1ccccc1)C(=O)N[C@@H](CC(N)=O)C(=O)N[C@@H](CC(=O)O)C(=O)N[C@@H](CS)C(=O)N[C@@H](CCCNC(=N)N)C(=O)N[C@@H](CC(=O)O)C(=O)N[C@H](C(=O)N[C@H](C(=O)N[C@@H](CCC(N)=O)C(=O)N[C@@H](CCCNC(=N)N)C(=O)N[C@@H](CCSC)C(=O)N[C@@H](Cc1c[nH]cn1)C(=O)N[C@@H](CC(C)C)C(=O)N[C@@H](CCCNC(=N)N)C(=O)N[C@@H](CCC(N)=O)C(=O)N[C@@H](Cc1ccc(O)cc1)C(=O)N[C@@H](CCC(=O)O)C(=O)N[C@@H](CC(C)C)C(=O)N[C@@H](CC(C)C)C(=O)O)[C@@H](C)CC)[C@@H](C)CC)C(C)C [bioSp] (Biotin-DTENIRRVFNDCRDIIQRMHLRQYELL-OH),mean bound (100-Supernatant),"β2-AR-mCer; isoproterenol 100 μM, total incl. nonspecific",54.8625%
same,receptor specifically pulled down (bound),"β2-AR-mCer; nonspecific subtracted, mean",45% and 45.31%
N-term fragment: N-terminal fragment generated by photocleavage of PC-Qp (DTENIRFVFAAVKDTILQLNLKE),"N-term fragment cleaved (fraction, MALDI-MS)","[1]; minus UV, replicate 1",0.33
same,"N-term fragment cleaved (fraction, MALDI-MS)","[1]; minus UV, replicate 2",0.24
same,"N-term fragment cleaved (fraction, MALDI-MS)","[1]; minus UV, replicate 3",0.38
same,"N-term fragment cleaved (fraction, MALDI-MS)","[1]; plus UV (350 nm, 2 min), replicate 1",0.91
same,"N-term fragment cleaved (fraction, MALDI-MS)","[1]; plus UV (350 nm, 2 min), replicate 2",0.91
same,"N-term fragment cleaved (fraction, MALDI-MS)","[1]; plus UV (350 nm, 2 min), replicate 3",0.92
"Qp → Sp: Qp mutant L349Q, E355Q, mimicking Sp (DTENIRFVFAAVKDTIQQLNLKQYNLV)",V1A-R G-protein activation in words,V1A-R with purified Gαq,increased cognate (Qp → Sp > Qp)
same,V1A-R IP1 levels in words,V1A-R SPASM sensors,increased cognate (Qp → Sp > Qp)
